Values of other authors as cited in patent publication US8993316B2, “Methods and compositions for gene therapy and GHRH therapy” (priority 2011, dated 2015).

Legend:
[1] = not given; remark: listed apart in the source

Compound	rough half-life (in vivo)	therapeutic effect duration (long acting)	half-life after injection [1]
COc1cc(CC(C)N)c(OC)cc1I (stereo not drawn) [DOI, 2,5-dimethoxy-4-iodoamphetamine]	12 to 15 h	≥ 30 h	
GHRH: growth hormone releasing hormone, a peptide hormone			roughly 8 minutes
